Where two headings read alike, the source gives them in different places.
Assays:
Type in all cases: binding
PCP2 sites = assay: [3H]TCP displacement, cerebellum membranes, 2-site model, PCP2; details: [3H]TCP 2.5 nM, rat cerebellum
Description: (§1) The affinity of the compounds for their potential bond site, can be evaluated by quantifying their ability to displace a specific tritiated label of a given site. The bond experiences are carried out by competition between the molecule to be tested and the appropriate radioligand on a membrane preparation rich in sites to be studied. The concentration of the derivative tested which inhibits 50% of the bond of the radioligand to the receptor is called IC50.
(§2) For the experimental conditions and membrane preparation techniques used, reference can be made to the literature (Brain Res., 378, 133-141 (1986); Eur. J. Pharm., 81, 531-542 (1982)).
(§3) For low affinity sites, the monosite treatment used led to incoherent results. The experimental data have therefore been reprocessed using non-linear regression (Marquardt-Levenberg algorithm) with Sigma Plot software (Jandel) according to a model with two noted sites of interaction PCP2 and PCP3. This processing proves to be more suitable than a monosite treatment (Student test: p<0.05) over a set of 3 to 4 experiments for each compound tested. Over all the experiments, the two site populations are found in a relative proportion to 68.0% (±1.5) for the PCP2 sites and 31.2% (±1.5) for the PCP3 sites.
(§4) For the PCP2 and PCP3 sites, the preparation originates from rat cerebella. Not having a specific label, only [^3H]TCP can be used. A more significant concentration of tritiated ligand (2.5 nM versus 1 nM in the cortex) is used to ensure that all the PCP2 and PCP3 sites are occupied.

PCP3 sites = assay: [3H]TCP displacement, cerebellum membranes, 2-site model, PCP3; details: [3H]TCP 2.5 nM, rat cerebellum
Description: as §1, §2, §3, §4

PCP1 sites = molecular target: T1, PCP1 sites (Rattus norvegicus, UniProt P35439); assay: [3H]TCP displacement, cortex membranes, 1-site model; details: for cortex 1 site nH: Hill number of the cortex displacement curve
T1 construct: membrane preparations originating from anterior cerebrum homogenates of rats; from tissue; host or cells: rat anterior cerebrum (forebrain/cortex) membranes
Description: as §1, with “studied.” for “studied. The concentration of the derivative tested which inhibits 50% of the bond of the radioligand to the receptor is called IC50.”
For the PCP1 sites, the tritiated label used is [^3H]TCP and the tests are carried out on membrane preparations originating from anterior cerebrum homogenates of rats.

PCP receptors = molecular target: T2, PCP receptors (Rattus norvegicus, UniProt P35439); assay: Percentage inhibition on PCP receptors ([3H]TCP, cerebral cortex membranes); details: compound 10 μM
T2 construct: membrane preparations originating from cerebral cortex of a rat; from tissue; host or cells: rat cerebral cortex membranes
Description: Percentage inhibition on PCP receptors:
The tritiated label used is [^3H]TCP and the tests are carried out on membrane preparations originating from cerebral cortex of a rat (Brain Res., 378, 133-141 (1986).

[1] = [3H]TCP 1 nM, rat cortex (anterior cerebrum) membranes, read-out: cortex 1 site IC50
[2] = cortex 1 site IC50, [3H]TCP 1 nM, rat cortex (anterior cerebrum) membranes
[3] = cortex 1 site IC50, [3H]TCP 1 nM, rat cortex membranes, bound in μM

Row | Compound | IC50 (PCP2 sites; two-site non-linear regression) [µM] | IC50 (PCP3 sites; two-site non-linear regression) [µM] | cortex 1 site nH (PCP1 sites) | IC50 (PCP1 sites; [1]) [µM] | IC50 (PCP1 sites; [2]) [µM] | IC50 (PCP1 sites; [3]) [µM] | IC50 (PCP2 sites; bound in μM) [µM] | IC50 (PCP3 sites; bound in μM) [µM] | inhibition at 10 µM (PCP receptors) [%]
1 | c1csc(C2(N3CCCCC3)CCCCC2)c1 [TCP, N-(1-(2-thienyl)cyclohexyl)piperidine, reference compound] | 0.059 | 3.72 | – | – | – | – | – | – | –
2 | c1coc(C2(N3CCCCC3)CCCCC2)c1 [Ex 18, N-[1-(2-furyl)-cyclohexan-1-yl] piperidine] | 0.187 | 0.0056 | 0.83 | 0.0078 | – | – | – | – | –
3 | CC1CSCCC1(c1cccs1)N1CCCCC1 (single isomer, unassigned) [Ex 1 (minority), N-[4-(2-thienyl)-3-methyl-tetrahydro-4H-thiopyran-4-yl] piperidine] | 1.35 | 0.0176 | 0.89 | – | 0.0268 | – | – | – | –
4 | OCC1CCCN(C2(c3cccs3)CCCCC2)C1 (stereo not drawn) [Ex 8, N-[1-(2-thienyl)-cyclohexan-1-yl]-3-hydroxymethyl-piperidine] | 2.24 | 0.0124 | 0.96 | 0.0284 | – | – | – | – | –
5 | C[C@@H]1CCCN(C2(c3cc4ccccc4s3)CCSCC2)C1 [Ex 6, R-(+)-N-[4-(2-benzothiophenyl)-tetrahydro-4H-thiopyran-4-yl]-3-methyl-piperidine] | – | 0.28 | – | – | – | > 100 | > 100 | – | –
6 | CC1CCCN(C2(c3cccs3)CCSCC2)C1 (racemic) [Ex 2, (±)-N-[4-(2-thienyl)-tetrahydro-4H-thiopyran-4-yl]-3-methyl-piperidine] | 0.265 | 2.85 | 1.14 | 0.132 | – | – | – | – | –
7 | C[C@H]1CCCN(C2(c3cc4ccccc4s3)CCSCC2)C1 [Ex 7, S-(−)-N-[4-(2-benzothiophenyl)-tetrahydro-4H-thiopyran-4-yl]-3-methyl-piperidine] | 84 | 0.639 | 0.73 | – | 82.8 | – | – | – | –
8 | CCNC1(c2cccs2)CCCCC1 [Ex 17, N-ethyl-1-(2-thienyl)-cyclohexylamine] | 0.055 | 47.6 | 0.77 | – | 0.0209 | – | – | – | –
9 | c1csc(C2(N3CCCCC3)CCSCC2)c1 [Ex 19, N-[4-(2-thienyl)-tetrahydro-4H-thiopyran-4-yl] piperidine] | 0.586 | 0.0085 | 1.05 | 0.0716 | – | – | – | – | –
10 | Cc1ccc(C2(N3CCCCC3)CCSCC2)s1 [Ex 11, N-[4-(5-methyl-thiophen-2-yl)-tetrahydro-4H-thiopyran-4-yl]-piperidine] | 0.532 | – | 0.97 | 0.462 | – | – | – | > 100 | –
11 | C[C@@H]1CCCN(C2(c3cccs3)CCSCC2)C1 [Ex 4, R-(+)-N-[4-(2-thienyl)-tetrahydro-4H-thiopyran-4-yl]-3-methyl-piperidine] | 0.0532 | 2.08 | 0.84 | 0.024 | – | – | – | – | –
12 | CC1CCCN(C2(c3cccs3)CCCCC2)C1 (single isomer, unassigned) [Ex 22 (+), N-[1-(2-thienyl)-cyclohexan-1-yl]-3-methyl piperidine] | 0.0283 | 0.808 | 1.04 | – | 0.0052 | – | – | – | –
13 | c1coc(C2(N3CCCCC3)CCSCC2)c1 [Ex 9, N-[4-(2-furyl)-tetrahydro-4H-thiopyran-4-yl]-piperidine] | 1.02 | 0.0138 | 0.87 | 0.133 | – | – | – | – | 96
14 | Cc1csc(C2(N3CCCCC3)CCSCC2)c1 [Ex 12, N-[4-(4-methyl-thiophen-2-yl)-tetrahydro-4H-thiopyran-4-yl]-piperidine] | 0.772 | 0.0054 | 0.93 | 0.0778 | – | – | – | – | –
15 | CC1CCCN(C2(c3cccs3)CCCCC2)C1 (single isomer, unassigned) [Ex 22 (−), N-[1-(2-thienyl)-cyclohexan-1-yl]-3-methyl piperidine] | – | – | 1.08 | – | 0.158 | – | – | – | –
16 | CC1CCCN(C2(c3cc4ccccc4s3)CCSCC2)C1 (racemic) [Ex 5, (±)-N-[4-(2-benzothiophenyl)-tetrahydro-4H-thiopyran-4-yl]-3-methyl-piperidine] | – | 0.581 | – | – | – | > 100 | > 100 | – | –
17 | CC1CSCCC1(c1cccs1)N1CCCCC1 (single isomer, unassigned) [Ex 1 (majority), N-[4-(2-thienyl)-3-methyl-tetrahydro-4H-thiopyran-4-yl] piperidine] | – | – | 0.94 | – | 17.2 | – | – | – | –
18 | c1ccc2oc(C3(N4CCCCC4)CCSCC3)cc2c1 [Ex 10, N-[4-(2-benzofuryl)-tetrahydro-4H-thiopyran-4-yl]-piperidine] | 26.6 | 0.0591 | 0.9 | 27.5 | – | – | – | – | 18
19 | c1csc(C2(N3CCCCC3)CCOCC2)c1 [Ex 20, N-[4-(2-thienyl)-tetrahydro-4H-pyran-4-yl] piperidine] | 5.84 | 0.035 | 0.98 | 1.22 | – | – | – | – | –
20 | CC1CCCN(C2(c3cccs3)CCCCC2)C1 (racemic) [Ex 22 (±), N-[1-(2-thienyl)-cyclohexan-1-yl]-3-methyl piperidine] | 0.0473 | 1.45 | 1.09 | – | 0.0055 | – | – | – | –
21 | c1csc(C2(N3CCCCC3)CCCSC2)c1 (stereo not drawn) [Ex 21, N-[3-(2-thienyl)-tetrahydro-4H-thiopyran-3-yl] piperidine] | 0.659 | 0.008 | 1.00 | 0.0734 | – | – | – | – | –
